# Reference: patent EP0745595A1, “3-(3-Aryloxyphenyl)-1-(substituted methyl)-s-triazine-2,4,6-oxo or thiotrione herbicidal agents” (American Cyanamid Company, priority 1995, dated 1996)
# Columns and labels:
# Type in all cases: in vivo
# GALIUM APARINE = experiment: Postemergence herbicidal evaluation, GALAP (Galium); design: key to GALAP rating / Herbicidal effect rating, GALAP / GALAP: 0-9 visual rating scale vs untreated control;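 for GALAP: higher means more injury with 8 approaching complete kill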
# Method in brief: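 Galium (GALAP) seedlings were raised in jiffy flats for about two weeks, then sprayed with test compounds dispersed in 50/50 acetone/water containing 0.5% TWEEN®20, delivered through a nozzle at 40 psi. Plants were kept on greenhouse benches and visually rated 0-9 against a control four to five weeks later; repeat tests were averaged.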
# [1] = tested on: GLYCINE MAX(L) MERR. CV. WILLIAMS; experiment: Postemergence herbicidal evaluation, GLXMAW (Soybean, Williams); design: key to GLXMAW rating / Herbicidal effect rating, GLXMAW / GLXMAW: 0-9 visual rating scale vs untreated control
# Method in brief: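 Soybean seedlings (Williams) were raised in jiffy flats for roughly two weeks, then sprayed postemergence through a nozzle at 40 psi with test compound dispersed in 50/50 acetone/water containing 0.5% TWEEN®20. Treated plants were kept on greenhouse benches under normal care and visually rated on a 0-9 scale four to five weeks later.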
# [2] = tested on: ORYZA SATIVA, L. TEBONNET; experiment: Postemergence herbicidal evaluation, ORYSAT (Rice, Tebonnet); design: key: 0-9 visual rating scale vs untreated control
# Procedure: In the tests, seedling plants are grown in jiffy flats for about two weeks. The test compounds are dispersed in 50/50 acetone/water mixtures containing 0.5% TWEEN®20, a polyoxyethylene sorbitan monolaurate surfactant of Atlas Chemical Industries, in sufficient quantities to provide the equivalent of about 0.125 kg to 0.500 kg per hectare of active compound when applied to the plants through a spray nozzle operating at 40 psi for a predetermined time. After spraying, the plants are placed on greenhouse benches and are cared for in the usual manner, commensurate with conventional greenhouse practices. From four to five weeks after treatment, the seedling plants are examined and rated according to the rating system set forth below. Where more than one test is involved for a given compound, the data are averaged.
# Plant species employed in these evaluations are reported by header abbreviation, common name and scientific name.
# Results of herbicide evaluation are expressed on a rating scale (0-9). The scale is based upon a visual observation of plant stand, vigor, malformation, size, chlorosis and overall plant appearance as compared with a control.
# [3] = tested on: ECHINOCHLOA ORYZOIDES (ARD.)FRITSCH; experiment: Preemergence weed control under flooded paddy conditions, ECHORC (Watergrass (Calif.)); details: pre-weed
# Method in brief: (§1)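 Flooded paddy preemergence test: seeds/propagating organs in top 0.5 cm silt loam, water held 1.5-3 cm above soil. Dosing by pipette into flood water, aqueous/acetone 50/50 v/v, ~0.5, 0.25, 0.125, 0.063 kg/ha a.i. Greenhouse; read at 3-4 wk, 0-9 visual scale.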
# [4] = tested on: CYPERUS SEROTINUS, ROTTB.; experiment: Preemergence weed control under flooded paddy conditions, CYPSE (Flatsedge); details: pre-weed
# Method in brief: as §1
# SAGITTARIA PYGMAEA, L. = experiment: Preemergence weed control under flooded paddy conditions, SAGPY (Arrowhead (Pygmaea)); details: pre-weed
# Method in brief: as §1
# [5] = tested on: GLYCINE MAX(L) MERR. CV. WILLIAMS; experiment: Preemergence herbicidal evaluation, GLXMAW (Soybean, Williams)
# Method in brief: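 Rated 0-9 by visual comparison with control (stand, vigor, malformation, size, chlorosis, overall appearance) four to five weeks after preemergence soil spray. Dose equivalent to about 0.125 to 0.50 kg per hectare, applied in aqueous acetone to freshly seeded cups kept in greenhouse.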
# ZEA MAYS L. = experiment: Preemergence herbicidal evaluation, ZEAMX (Corn, Field)
# Method in brief: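 Corn (Zea mays) seeds were mixed with potting soil and planted on about one inch of soil in pint cups, then treated preemergence. Cups were kept on greenhouse benches, watered and maintained conventionally, and after four to five weeks were visually rated on a 0-9 scale versus an untreated control.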
# […], PRESL. = Preemergence weed control under flooded paddy conditions, MOOVA (Monochoria); details: pre-weed
# Method in brief: as §1
# CASSIA OBTUSIFOLIA, L. = experiment: Preemergence herbicidal evaluation, CASOB (Sicklepod)
# Method in brief: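 Seeds of various monocot and dicot plants, including sicklepod, were each mixed with potting soil and sown on roughly one inch of soil in separate pint cups for preemergence testing. Treated cups were kept on greenhouse benches, watered and maintained conventionally. Four to five weeks after treatment, each cup was visually rated on a 0-9 scale against a control.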
# CYPERUS IRIA = experiment: Preemergence weed control under flooded paddy conditions, CYPIR (Rice Flatsedge); details: pre-weed
# Method in brief: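 Seeds or propagating organs of rice flatsedge were planted in the top 0.5 cm of silt loam soil in 32 oz. plastic containers, 10.5 cm across and without drainage holes. Water was kept 1.5 to 3 cm above the soil throughout. Treated containers were kept on greenhouse benches, and herbicidal effect was visually rated on a 0-9 scale against a control.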
smiles,measurement,setting,value
"Cn1c(=O)[nH]c(=O)n(-c2cc(Oc3ccc(C(F)(F)F)cc3Cl)ccc2Cl)c1=O [F, reference compound]",GALAP,GALIUM APARINE; Rate 0.016 kg/ha,5.0
same,GALAP,GALIUM APARINE; Rate 0.032 kg/ha,6.0
same,GALAP,GALIUM APARINE; Rate 0.063 kg/ha,6.0
same,GALAP,GALIUM APARINE; Rate 0.125 kg/ha,6.0
same,GALAP,GALIUM APARINE; Rate 0.250 kg/ha,8.0
same,GALAP,GALIUM APARINE; Rate 0.500 kg/ha,6.0
same,GLXMAW,[1]; Rate 0.016 kg/ha,3.5
same,GLXMAW,[1]; Rate 0.032 kg/ha,3.5
same,GLXMAW,[1]; Rate 0.063 kg/ha,4.5
same,GLXMAW,[1]; Rate 0.125 kg/ha,4.0
same,GLXMAW,[1]; Rate 0.250 kg/ha,5.5
same,GLXMAW,[1]; Rate 0.500 kg/ha,5.5
same,ORYSAT,[2]; Rate 0.016 kg/ha,1.5
same,ORYSAT,[2]; Rate 0.032 kg/ha,1.5
same,ORYSAT,[2]; Rate 0.063 kg/ha,2.5
same,ORYSAT,[2]; Rate 0.125 kg/ha,3.0
same,ORYSAT,[2]; Rate 0.250 kg/ha,3.0
same,ORYSAT,[2]; Rate 0.500 kg/ha,3.0
same,ECHORC,[3]; Rate 0.031 kg/ha,0.0
same,ECHORC,[3]; Rate 0.063 kg/ha,0.0
same,ECHORC,[3]; Rate 0.125 kg/ha,0.0
same,ECHORC,[3]; Rate 0.250 kg/ha,0.0
same,CYPSE,[4]; Rate 0.031 kg/ha,0.0
same,CYPSE,[4]; Rate 0.063 kg/ha,0.0
same,CYPSE,[4]; Rate 0.125 kg/ha,0.0
same,CYPSE,[4]; Rate 0.250 kg/ha,0.0
same,SAGPY,"SAGITTARIA PYGMAEA, L.; Rate 0.031 kg/ha",0.0
same,SAGPY,"SAGITTARIA PYGMAEA, L.; Rate 0.063 kg/ha",0.0
same,SAGPY,"SAGITTARIA PYGMAEA, L.; Rate 0.125 kg/ha",0.0
same,SAGPY,"SAGITTARIA PYGMAEA, L.; Rate 0.250 kg/ha",0.0
"Cn1c(=O)[nH]c(=O)n(-c2cc(Oc3c(F)cc(C(F)(F)F)cc3Cl)ccc2F)c1=O [C, reference compound]","Herbicidal effect rating, GALAP",GALIUM APARINE; 0.031 kg/ha,2.0
same,"Herbicidal effect rating, GALAP",GALIUM APARINE; 0.063 kg/ha,6.0
same,"Herbicidal effect rating, GALAP",GALIUM APARINE; 0.125 kg/ha,7.0
same,"Herbicidal effect rating, GALAP",GALIUM APARINE; 0.250 kg/ha,7.0
same,"Herbicidal effect rating, GLXMAW",[1]; 0.031 kg/ha,3.5
same,"Herbicidal effect rating, GLXMAW",[1]; 0.063 kg/ha,4.5
same,"Herbicidal effect rating, GLXMAW",[1]; 0.125 kg/ha,4.5
same,"Herbicidal effect rating, GLXMAW",[1]; 0.250 kg/ha,5.0
same,"Herbicidal effect rating, ORYSAT",[2]; 0.031 kg/ha,3.0
same,"Herbicidal effect rating, ORYSAT",[2]; 0.063 kg/ha,3.5
same,"Herbicidal effect rating, ORYSAT",[2]; 0.125 kg/ha,3.5
same,"Herbicidal effect rating, ORYSAT",[2]; 0.250 kg/ha,3.5
same,GLXMAW,[5]; Rate 0.031 kg/ha,0.0
same,GLXMAW,[5]; Rate 0.063 kg/ha,0.0
same,GLXMAW,[5]; Rate 0.125 kg/ha,0.0
same,GLXMAW,[5]; Rate 0.250 kg/ha,0.0
same,ZEAMX,ZEA MAYS L.; Rate 0.031 kg/ha,0.0
same,ZEAMX,ZEA MAYS L.; Rate 0.063 kg/ha,0.0
same,ZEAMX,ZEA MAYS L.; Rate 0.125 kg/ha,0.0
same,ZEAMX,ZEA MAYS L.; Rate 0.250 kg/ha,0.0
same,CYPSE,[4]; Rate 0.031 kg/ha,0.0
same,CYPSE,[4]; Rate 0.063 kg/ha,0.0
same,CYPSE,[4]; Rate 0.125 kg/ha,0.0
same,CYPSE,[4]; Rate 0.250 kg/ha,0.0
same,MOOVA,"[…], PRESL.; Rate 0.031 kg/ha",9.0
same,MOOVA,"[…], PRESL.; Rate 0.063 kg/ha",9.0
same,MOOVA,"[…], PRESL.; Rate 0.125 kg/ha",9.0
same,MOOVA,"[…], PRESL.; Rate 0.250 kg/ha",9.0
same,SAGPY,"SAGITTARIA PYGMAEA, L.; Rate 0.031 kg/ha",0.0
same,SAGPY,"SAGITTARIA PYGMAEA, L.; Rate 0.063 kg/ha",0.0
same,SAGPY,"SAGITTARIA PYGMAEA, L.; Rate 0.125 kg/ha",0.0
same,SAGPY,"SAGITTARIA PYGMAEA, L.; Rate 0.250 kg/ha",0.0
"Cn1c(=O)[nH]c(=O)n(-c2cccc(Oc3ccc(C(F)(F)F)cc3Cl)c2)c1=O [E, reference compound]",GALAP,GALIUM APARINE; Rate 0.063 kg/ha,3.0
same,GALAP,GALIUM APARINE; Rate 0.125 kg/ha,4.0
same,GALAP,GALIUM APARINE; Rate 0.250 kg/ha,5.0
same,GALAP,GALIUM APARINE; Rate 0.500 kg/ha,2.5
same,GLXMAW,[1]; Rate 0.063 kg/ha,2.0
same,GLXMAW,[1]; Rate 0.125 kg/ha,2.5
same,GLXMAW,[1]; Rate 0.250 kg/ha,3.0
same,GLXMAW,[1]; Rate 0.500 kg/ha,3.5
same,ORYSAT,[2]; Rate 0.063 kg/ha,1.5
same,ORYSAT,[2]; Rate 0.125 kg/ha,2.0
same,ORYSAT,[2]; Rate 0.250 kg/ha,2.0
same,ORYSAT,[2]; Rate 0.500 kg/ha,3.0
same,CASOB,"CASSIA OBTUSIFOLIA, L.; Rate 0.125 kg/ha",0.0
same,CASOB,"CASSIA OBTUSIFOLIA, L.; Rate 0.250 kg/ha",0.0
same,CASOB,"CASSIA OBTUSIFOLIA, L.; Rate 0.500 kg/ha",0.0
same,CASOB,"CASSIA OBTUSIFOLIA, L.; Rate 1.000 kg/ha",0.0
same,ECHORC,[3]; Rate 0.250 kg/ha,0.0
same,ECHORC,[3]; Rate 0.500 kg/ha,0.0
same,ECHORC,[3]; Rate 1.000 kg/ha,0.0
same,CYPIR,CYPERUS IRIA; Rate 0.250 kg/ha,0.0
same,CYPIR,CYPERUS IRIA; Rate 0.500 kg/ha,0.0
same,CYPIR,CYPERUS IRIA; Rate 1.000 kg/ha,0.0
same,CYPSE,[4]; Rate 0.250 kg/ha,0.0
same,CYPSE,[4]; Rate 0.500 kg/ha,0.0
same,CYPSE,[4]; Rate 1.000 kg/ha,0.0
same,MOOVA,"[…], PRESL.; Rate 0.250 kg/ha",0.0
same,MOOVA,"[…], PRESL.; Rate 0.500 kg/ha",0.0
same,MOOVA,"[…], PRESL.; Rate 1.000 kg/ha",0.0
same,SAGPY,"SAGITTARIA PYGMAEA, L.; Rate 0.250 kg/ha",0.0
same,SAGPY,"SAGITTARIA PYGMAEA, L.; Rate 0.500 kg/ha",0.0
same,SAGPY,"SAGITTARIA PYGMAEA, L.; Rate 1.000 kg/ha",0.0
